Experiment: Biodistribution Data of Selected Tc-99m(III) Complexes in Guinea Pigs
Type: in vivo
Conditions: for Heart/Blood / Heart/Liver: ratio

| % Heart uptake (5 min) | % Heart uptake (60 min) | Heart/Blood (5 min) | Heart/Liver (5 min) | Heart/Blood (60 min) | Heart/Liver (60 min) | Substance |
| --- | --- | --- | --- | --- | --- | --- |
| 0.8 % Injected dose/Organ | 0.9 % Injected dose/Organ | 5.4 | 1.2 | 58.6 | 3.0 | trans-[1,2-bis[dihydro-2,2,5,5-tetramethyl-3(2H)furanone-4-methyleneamino]ethane]bis-[tris(2-(2-(1,3-dioxanyl))]ethylphosphine]technetium-99m(III) [Complex IV] |
| 1.1 % Injected dose/Organ | 1.0 % Injected dose/Organ | 5.9 | 0.9 | 3.5 | 1.5 | trans-[1,2-bis[dihydro-2,2,5,5-tetramethyl-3(2H)furanthione-4-methyleneamino]ethane]-bis[tris(3-methoxypropyl)phosphine]technetium-99m (III) [Complex III] |
| 0.9 % Injected dose/Organ | 0.8 % Injected dose/Organ | 6.1 | 1.6 | 26.5 | 5.6 | trans-[1-[dihydro-2,2,5,5-tetramethyl-3(2H)furanthione-4-methyleneamino]-2-[dihydro-2,2,5,5-tetramethyl-3(2H)furanone-4-methyleneaminoethane]bis[tris(3-methoxypropyl)phosphine]technetium-99m(III) [Complex II] |

| Substance | % Heart uptake (5 min) | % Heart uptake (60 min) | Heart/Blood (5 min) | Heart/Liver (5 min) | Heart/Blood (60 min) | Heart/Liver (60 min) |
| --- | --- | --- | --- | --- | --- | --- |
| trans-[1,2-bis[dihydro-2,2,5,5-tetramethyl-3(2H)furanone-4-methyleneamino]ethane]bis[tris(3-methoxypropyl)phosphine]technetium-99m(III) [Complex I] | 0.8 % Injected dose/Organ | 0.9 % Injected dose/Organ | 4.6 | 1.5 | 35.6 | 6.6 |

Reference: patent US5112594A, “Kit for preparing a technetium-99m myocardial imaging agent” (Mallinckrodt Medical, Inc., priority 1991, dated 1992)
